The source of these data is US20260364215A1, “Radiopharmaceutical Compositions Targeting Ephrin Type-A Receptor 2 and Uses Thereof” (PeptiDream Inc., priority 2022, published 2026).

One may read the Kd as the concentration at which binding is half-saturated.

Where two headings read alike, the source gives them in different places. Numbered stars: 1 amine (or outer) side, 2 acyl side, 3 side chain; on linkers, the order of the positions; unused ones are H or OH. Bridge positions count the residues as written; N and C are the ends. Square brackets hold non-standard residues; d marks the D form. Side chains are listed from the residue outwards. Peptide text beside a SMILES is read from it. * marks the point of attachment. DOTA(Lu) = O=C1CN2CCN3CCN(CC(=O)*)CCN(CC2)CC(=O)[O][Lu]([O]1)[O]C(=O)C3; NH(1-deoxy-D-glucityl) = OC[C@@H](O)[C@@H](O)[C@H](O)[C@@H](O)CN*; Trp(1-Me,7-Cl) = Cn1cc(C[C@H](N)C(=O)O)c2cccc(Cl)c21; dPhe(3-CONH2) = NC(=O)c1cccc(C[C@@H](N)C(=O)O)c1; Piperazinyl(4-CH2COOH) = O=C(O)CN1CCN(*)CC1; Trp(1-Me) = Cn1cc(C[C@H](N)C(=O)O)c2ccccc21; NMe3Pal = CN[C@@H](Cc1cccnc1)C(=O)O; Gly(cBu) = N[C@H](C(=O)O)C1CCC1; Aad = N[C@@H](CCCC(=O)O)C(=O)O; NMeN = CN[C@@H](CC(N)=O)C(=O)O; CO = O=C([*:1])[*:2]

For this assay, the target named is T1, Recombinant Human EphA2 Fc Protein (Homo sapiens, UniProt P29317).
T1 construct: purchased Elabscience
The experiment in a line: Interaction analysis (kinetics, KD) of peptides and conjugates against EphA2 by SPR, Biacore T200, single-cycle kinetics (Examples B15 and B22). The assay is classed as binding. How it is done:
Example B15. Interaction Analysis by SPR was Performed Using Biacore (Cytiva)
SPR assay was performed using Biacore T200 (Cytiva).
The HBS-P+ buffer (10 mM HEPES (pH7.4), 150 mM NaCl, 0.05% (v/v) Surfactant P20) containing 1% DMSO was used as running buffer. Recombinant Human EphA2 Fc Protein (Fc tag, Elabscience) was captured by Human Antibody Capture kit (Cytiva). Peptide samples in DMSO were diluted with running buffer, and prepared five serial dilutions. Using these serial dilutions, kinetics of peptides against EphA2 was measured at a flow rate of […] at 25 °C. The method adopted for sample measurement was a single-cycle kinetics method. The analysis was conducted using the evaluation software 3.0 provided with Biacore T200. Kinetics fitting was done on the difference data obtained by subtracting the baseline data from sample measurement data. KD values were calculated based on the association rate constant (ka) and dissociation rate constant (kd).
Example B22: Interaction Analysis of Conjugates by SPR was Performed Using Biacore (Cytiva)
SPR assay was performed using Biacore T200 (Cytiva) according to Example B15.

Where [1] appears, read: peptides, Biacore T200, 25 °C, Table B12, read-out: SPR Kd.

T1 sequence (P29317 24-534 limits assumed): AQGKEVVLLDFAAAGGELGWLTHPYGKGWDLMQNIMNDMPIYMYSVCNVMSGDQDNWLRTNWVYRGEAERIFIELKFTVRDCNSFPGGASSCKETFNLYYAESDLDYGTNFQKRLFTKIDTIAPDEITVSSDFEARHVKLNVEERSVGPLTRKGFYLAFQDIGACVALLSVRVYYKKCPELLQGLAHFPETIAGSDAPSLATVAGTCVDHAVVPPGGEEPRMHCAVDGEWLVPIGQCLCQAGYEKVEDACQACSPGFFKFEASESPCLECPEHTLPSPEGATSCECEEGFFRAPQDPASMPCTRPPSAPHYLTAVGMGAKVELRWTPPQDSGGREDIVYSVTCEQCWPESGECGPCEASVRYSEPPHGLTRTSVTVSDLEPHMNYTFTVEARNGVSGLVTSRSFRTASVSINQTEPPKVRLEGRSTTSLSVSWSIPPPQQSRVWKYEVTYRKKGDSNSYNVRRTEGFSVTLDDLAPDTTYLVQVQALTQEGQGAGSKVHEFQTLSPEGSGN

Consider `C[C@@H](O)[C@@H]1NC(=O)[C@H](Cc2cn(C)c3ccccc23)NC(=O)[C@H](CCC(=O)NC[C@H](O)[C@@H](O)[C@H](O)[C@H](O)CO)NC(=O)[C@H](Cc2cn(C)c3c(Cl)cccc23)NC(=O)[C@H](Cc2cccnc2)N(C)C(=O)[C@H](CCCC(N)=O)NC(=O)[C@H](C2CCC2)NC(=O)[C@H](CC(N)=O)NC(=O)[C@H](Cc2cccnc2)N(C)C(=O)[C@@H](Cc2cccc(C(N)=O)c2)NC(=O)CSC[C@@H](C(N)=O)NC(=O)[C@H](CCCC(N)=O)NC1=O` [PDC_EphA2-00019437] ({CH2CO}-[dPhe(3-CONH2)][NMe3Pal]N[Gly(cBu)][Aad](NH2)[NMe3Pal][Trp(1-Me,7-Cl)]E(NH(1-deoxy-D-glucityl))[Trp(1-Me)]T[Aad](NH2)C-NH2; thioether N-12), for which the dissociation constant (Kd) under setting [1] was less than 1 nM.

Consider `C[C@@H](O)[C@@H]1NC(=O)[C@H](Cc2cn(C)c3ccccc23)NC(=O)[C@H](CCCCNC(=O)N2CCN(CC(=O)O)CC2)NC(=O)[C@H](Cc2cn(C)c3c(Cl)cccc23)NC(=O)[C@H](Cc2cccnc2)N(C)C(=O)[C@H](CCCC(N)=O)NC(=O)[C@H](C2CCC2)NC(=O)[C@H](CC(N)=O)NC(=O)[C@H](Cc2cccnc2)N(C)C(=O)[C@@H](Cc2cccc(C(N)=O)c2)NC(=O)CSC[C@@H](C(N)=O)NC(=O)[C@H](CCCC(N)=O)NC1=O` [PDC_EphA2-00019438] ({CH2CO}-[dPhe(3-CONH2)][NMe3Pal]N[Gly(cBu)][Aad](NH2)[NMe3Pal][Trp(1-Me,7-Cl)]K([CO-Piperazinyl(4-CH2COOH)])[Trp(1-Me)]T[Aad](NH2)C-NH2; thioether N-12), for which the Kd under setting [1] was less than 1 nM.

For the molecule `C[C@@H](O)[C@@H]1NC(=O)[C@H](Cc2cn(C)c3ccccc23)NC(=O)[C@H](CCC(=O)NC[C@H](O)[C@@H](O)[C@H](O)[C@H](O)CO)NC(=O)[C@H](Cc2cn(C)c3c(Cl)cccc23)NC(=O)[C@H](CC(N)=O)N(C)C(=O)[C@H](CCCC(N)=O)NC(=O)[C@H](C2CCC2)NC(=O)[C@H](CC(N)=O)NC(=O)[C@H](Cc2cccnc2)N(C)C(=O)[C@@H](Cc2cccc(C(N)=O)c2)NC(=O)CSC[C@@H](C(=O)N[C@H](CCCCNC(=O)CN2CCN3CCN4CCN(CC2)CC(=O)[O][Lu]([O]C(=O)C3)[O]C(=O)C4)C(N)=O)NC(=O)[C@H](CCCC(N)=O)NC1=O` [PDC_EphA2-00022593-C302] ({CH2CO}-[dPhe(3-CONH2)][NMe3Pal]N[Gly(cBu)][Aad](NH2)[NMeN][Trp(1-Me,7-Cl)]E(NH(1-deoxy-D-glucityl))[Trp(1-Me)]T[Aad](NH2)C[dK](DOTA(Lu))-NH2; thioether N-12), the Kd is less than 1 nM.

Regarding `C[C@@H](O)[C@@H]1NC(=O)[C@H](Cc2cn(C)c3ccccc23)NC(=O)[C@H](CCC(=O)NC[C@H](O)[C@@H](O)[C@H](O)[C@H](O)CO)NC(=O)[C@H](Cc2cn(C)c3c(Cl)cccc23)NC(=O)[C@H](CC(N)=O)N(C)C(=O)[C@H](CCC(=O)NC[C@H](O)[C@@H](O)[C@H](O)[C@H](O)CO)NC(=O)[C@H](C2CCC2)NC(=O)[C@H](CC(N)=O)NC(=O)[C@H](Cc2cccnc2)N(C)C(=O)[C@@H](Cc2cccc(C(N)=O)c2)NC(=O)CSC[C@@H](C(=O)N[C@H](CCCCNC(=O)CN2CCN3CCN4CCN(CC2)CC(=O)[O][Lu]([O]C(=O)C3)[O]C(=O)C4)C(N)=O)NC(=O)[C@H](CCCC(N)=O)NC1=O` [PDC_EphA2-00022594-C302] ({CH2CO}-[dPhe(3-CONH2)][NMe3Pal]N[Gly(cBu)]E(NH(1-deoxy-D-glucityl))[NMeN][Trp(1-Me,7-Cl)]E(NH(1-deoxy-D-glucityl))[Trp(1-Me)]T[Aad](NH2)C[dK](DOTA(Lu))-NH2; thioether N-12), the Kd was less than 1 nM.
